For series [1], the system named is S. boulardii (Sb). The series is described as follows: Methotrexate effective dose in S. boulardii. The following applies: MTX alone, up to 500 nM, 24 hour reading. Format: cell-based. The protocol: Cells were seeded at OD=0.2, 24 hour reading.
For series [2], the target named is hTNF-α (Homo sapiens, UniProt P01375). Kind of series: Neutralization of human TNF-α cytotoxicity on L929 cells. The following applies: read-out: IC50, block hTNF-α-induced cytotoxicity.
Description: After 24h incubation, the antibody-mediated inhibitions of cytotoxicity were measured.
Series [3] has as its system patients with COVID-19 pneumonia and systemic hyperinflammation. The settings on record: human, in vivo; cited from earlier work.
The subject of series [4] is Crohn's disease. The settings on record: systemic administration; cited from earlier work.

As usually defined, the IC50 is the concentration needed to halve the response being measured.

hTNF-α, sequence (P01375 77-233 limits assumed): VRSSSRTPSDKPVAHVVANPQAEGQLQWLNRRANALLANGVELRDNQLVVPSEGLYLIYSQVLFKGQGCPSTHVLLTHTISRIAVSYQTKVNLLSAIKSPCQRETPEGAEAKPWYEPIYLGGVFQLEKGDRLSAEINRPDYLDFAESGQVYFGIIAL

For the compound `CN(Cc1cnc2nc(N)nc(N)c2n1)c1ccc(C(=O)N[C@@H](CCC(=O)O)C(=O)O)cc1` [MTX, methotrexate], the “growth inhibition of S. boulardii” value in series [1] is “not enough to cause an effect on growth inhibition”.
Regarding Adalimumab [Humira], the IC50 in series [2] was determined as 0.028 nM.
Regarding “Mavrilimumab: investigational fully-human monoclonal antibody that targets GM-CSF receptor alpha”, the “proportion of patients alive and off oxygen therapy at day 14” value in series [3] is “hyperinflammation. Unfortunately, there was no significant difference”.
Take “infliximab: anti-TNF monoclonal antibody”: in series [4], the “clinical response in Crohn's disease” value is “drastic clinical improvement”.
